From patent US20100009934A1, “BETA ADRENERGIC RECEPTOR AGONISTS FOR THE TREATMENT OF B-CELL PROLIFERATIVE DISORDERS” (CombinatoRx, Incorporated, priority 2008, published 2010)

System: Diffuse Large B-Cell Lymphoma Cell Line OCI-Ly10
Assay: Anti-proliferation assay (ATPLite, 72 hours), OCI-ly10
Format: cell-based
Details: DEX μM r7-r15: 0.101, 0.033666667, 0.011222222, 0.003740741, 0.001246914, 0.000415638, 0.000138546, 0.000046182, 0
Description: Combinations were ranked initially by Additivity Excess Volume, which is defined as ADD Volume=ΣCX, CY (Idata−ILoewe), where ILoewe(CX, CY) is the inhibition that satisfies (CX/ECX)+(CY/ECY)=1, and ECX,Y are the effective concentrations at ILoewe for the single agent curves.

OCc1cc(C(O)CNCCCCCCOCCCCc2ccccc2)ccc1O (stereo not drawn) [salmeterol]
Antiproliferative Activity (Salmeterol 0.001055 μM): 5.9
Antiproliferative Activity (Salmeterol 0.003165 μM): 6.3
Antiproliferative Activity (Salmeterol 0.009494 μM): 9.1
Antiproliferative Activity (Salmeterol 0.028481 μM): −0.6
Antiproliferative Activity (Salmeterol 0.085444 μM): 6.3
Antiproliferative Activity (Salmeterol 0.256333 μM): 27
